{
  "source": "patent US20160355465A1",
  "about": "“NOVEL MODIFIED CURCUMINS AND THEIR USES” (THE RESEARCH FOUNDATION OF STATE UNIVERSITY OF NEW YORK, priority 2011, published 2016)",
  "key": {"MMP-9 [1]": {"molecular_target": "MMP-9 (Homo sapiens, UniProt P14780)", "sequence (P14780 94-707)": "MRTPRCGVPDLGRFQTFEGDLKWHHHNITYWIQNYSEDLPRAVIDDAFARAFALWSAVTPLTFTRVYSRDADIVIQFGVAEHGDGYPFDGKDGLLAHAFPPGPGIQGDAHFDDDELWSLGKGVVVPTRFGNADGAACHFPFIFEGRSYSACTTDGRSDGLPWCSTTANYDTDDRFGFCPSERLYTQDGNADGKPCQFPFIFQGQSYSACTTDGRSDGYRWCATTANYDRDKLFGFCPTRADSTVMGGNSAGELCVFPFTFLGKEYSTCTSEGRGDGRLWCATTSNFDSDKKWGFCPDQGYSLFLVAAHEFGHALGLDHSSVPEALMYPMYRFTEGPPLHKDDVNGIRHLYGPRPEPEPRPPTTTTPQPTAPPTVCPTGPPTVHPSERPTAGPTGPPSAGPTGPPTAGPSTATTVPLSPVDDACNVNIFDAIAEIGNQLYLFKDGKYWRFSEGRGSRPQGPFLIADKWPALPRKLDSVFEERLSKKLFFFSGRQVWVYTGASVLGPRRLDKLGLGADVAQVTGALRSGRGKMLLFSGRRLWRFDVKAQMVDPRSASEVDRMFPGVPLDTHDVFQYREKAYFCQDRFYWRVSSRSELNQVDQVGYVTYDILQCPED", "experiment": "fluorimetric assay of MMP activity", "format": "biochemical", "conditions": "synthetic fluorescent peptide substrate Mca-Lys-Pro-Leu-Gly-Leu-Dpa-Ala-Arg-NH2"}, "mosquito bites": {"system": "mosquito bites", "experiment": "mosquito bites on the arms of a human subject, topical", "format": "in vivo", "conditions": "Example 9", "source_text": "Mosquitoes are presented with and allowed to bite the left and right arms of a human subject."}, "skin wounds": {"system": "skin wounds", "experiment": "healing of 6 mm skin wounds in streptozotocin-diabetic rats, clinical wound diameter", "format": "in vivo, rat", "conditions": "7 days", "procedure": "Three weeks after inducing diabetes, the back skin of all the rats was shaved and a series of 6 standard wounds per rat, each 6 mm in diameter, was made using a surgical trephine.\nA finely-ground sample (0.1 g) of Compound 4 [4-(phenylaminocarbonyl)-1,7-bis(4-hydroxyphenyl)hepta-1e,6e-diene-3,5-dione] was added to petrolatum jelly (9 g) and the mixture was homogenized for 15 minutes at 25° C., then allowed to settle for 5 minutes. This procedure was repeated nine times, producing a homogeneous product having a cream-like consistency. This was then used in topical application to wounds.\nThe following five experimental groups (n=3 rats per group) were established: Non-diabetic control rats (NDC) treated by daily application of white petrolatum jelly (“vehicle”) for 7 days, diabetic rats (D group) treated daily with vehicle alone; diabetics treated by daily topical application of either a 1% (D+1%) or a 3% (D+3%) suspension of Compound 4 in the vehicle; and diabetics treated systemically by daily oral intubation of a 1 ml suspension of Compound 4 (in carboxymethylcellulose) at a dose of 30 mg/kg over the 7-day treatment protocol (D+30 mg/kg). At the end of this time period, the circular wounds were clinically assessed by measuring diameter of the wound in millimeters, blood samples were collected, the rats were sacrificed, and skin samples collected for histological/histochemical, and biochemical assessment as described below. • 1) On day 7 after inducing wound healing, the animals were anesthetized and blood samples collected for blood glucose (one Touch Ultra Glucometer; Johnson & Johnson, New Brunswick, N.J.) and Hemoglobin A1c (A1c Now+; Bayer Health Care, Sunnyvale, Calif.) measurements. • 2) Photographs were taken for clinical observations to assess wound closure. The % reduction of the wound surface was calculated by measuring the diameter (in millimeters) of each wound before and after the treatment protocol. • 3) Wound tissues on day 7 were excised from 3 sites per rat and pooled for biochemical analysis. […]"}, "MMP-9 [2]": {"system": "MMP-9", "experiment": "MMP-9 in conditioned media of peritoneal macrophages, gelatin zymography", "format": "in vivo, rat", "conditions": "diabetic rats, oral 30 mg/kg daily, 21 days; no LPS", "procedure": "(§1) Adult male Sprague-Dawley rats (body weight 300-350 g) were injected through the tail vein with either 0.9% saline (non-diabetic control) or with the same solution containing streptozotocin (70 mg/kg body weight) to induce diabetes. Non-diabetic rats served as normal controls. The diabetic rats were distributed into 2 experimental groups (3 rats per group). Urine glucose levels were measured weekly with Tes-Tape (Eli Lilly Inc.). One group of rats was treated by oral gavage of Compound 4 (30 mg/kg body weight) daily for 21 days; the Compound 4 was suspended in 2% carboxymethyl cellulose and polytron/homogenized. The normal & diabetic vehicle-treated (control) groups were oral gavaged with vehicle alone daily.\n(§2) Rat peritoneal macrophages were harvested with 10 ml RPMI 4 days after intraperitoneal injection of 10 ml of thioglycolate (3% wt/vol). Macrophages were then purified by density gradient centrifugation (lymphoprep) and cell numbers were counted in a hemocytometer. The cells were then tested in a cell migration assay (Cell BioLabs, Inc, CytoSelect 96-well with 5 um fluorometric format) using conditioned medium containing inflammatory mediators including MCP-1 from LPS-macrophages as a chemoattractant. The macrophages from different groups of rats were also plated onto 24 well-plates with and without p.g.LPS challenge for 24 hours in 37° C., 5% CO2. […]"}, "[3]": {"experiment": "toxicity / tolerability in diabetic rats", "format": "in vivo", "procedure": "The following five experimental groups (n=3 rats per group) were established: Non-diabetic control rats (NDC) treated by daily application of white petrolatum jelly (“vehicle”) for 7 days, diabetic rats (D group) treated daily with vehicle alone; diabetics treated by daily topical application of either a 1% (D+1%) or a 3% (D+3%) suspension of Compound 4 in the vehicle; and diabetics treated systemically by daily oral intubation of a 1 ml suspension of Compound 4 (in carboxymethylcellulose) at a dose of 30 mg/kg over the 7-day treatment protocol (D+30 mg/kg). At the end of this time period, the circular wounds were clinically assessed by measuring diameter of the wound in millimeters, blood samples were collected, the rats were sacrificed, and skin samples collected for histological/histochemical, and biochemical assessment as described below. • 1) On day 7 after inducing wound healing, the animals were anesthetized and blood samples collected for blood glucose (one Touch Ultra Glucometer; Johnson & Johnson, New Brunswick, N.J.) and Hemoglobin A1c (A1c Now+; Bayer Health Care, Sunnyvale, Calif.) measurements. • 2) Photographs were taken for clinical observations to assess wound closure. The % reduction of the wound surface was calculated by measuring the diameter (in millimeters) of each wound before and after the treatment protocol. • 3) Wound tissues on day 7 were excised from 3 sites per rat and pooled for biochemical analysis. […] The supernates were then dialyzed against the Tris-HCl, NaCl, CaCl2 buffer, and the proteinases partially purified by ammonium sulfate precipitation and examined for levels of MMP-2 (72 kD gelatinse) and MMP-9 (92 kD gelatinase) by gelatin zymography using denatured type I collagen (gelatin) as the substrate (6). • 4) The remaining wounds were assessed histologically & histochemically by Dr. Steve McClain (McClain Labs, Smithtown, N.Y.) as follows: Biopsies of each wound site were taken and included both the wound tissue and surrounding non-wounded tissue. […]"}, "MMP-14": {"molecular_target": "MMP-14 (Homo sapiens, UniProt P50281)", "experiment": "fluorimetric assay of MMP activity", "format": "biochemical", "conditions": "synthetic fluorescent peptide substrate Mca-Lys-Pro-Leu-Gly-Leu-Dpa-Ala-Arg-NH2"}, "MMP-7": {"molecular_target": "T1, MMP-7 (Homo sapiens, UniProt P09237)", "T1 sequence (P09237 95-267)": "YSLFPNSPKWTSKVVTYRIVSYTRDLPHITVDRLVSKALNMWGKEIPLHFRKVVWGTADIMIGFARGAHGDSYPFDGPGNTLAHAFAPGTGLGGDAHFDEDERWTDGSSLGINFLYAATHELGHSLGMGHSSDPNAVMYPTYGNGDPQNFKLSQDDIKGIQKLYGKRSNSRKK", "experiment": "fluorimetric assay of MMP activity", "format": "biochemical", "conditions": "synthetic fluorescent peptide substrate Mca-Lys-Pro-Leu-Gly-Leu-Dpa-Ala-Arg-NH2"}, "peritoneal macrophages": {"system": "peritoneal macrophages", "experiment": "macrophage accumulation in peritoneal exudates of diabetic rats", "format": "in vivo, rat", "conditions": "oral 30 mg/kg daily, 21 days", "procedure": "as §1, §2"}, "collagen in wound tissue": {"system": "collagen in wound tissue", "experiment": "collagen fractions (hydroxyproline) in wound tissue of diabetic rats", "format": "in vivo, rat", "conditions": "wound tissue day 6", "source_text": "Biochemical measurements were made on wound tissue 6 days after creating the standardized 6 mm diameter wounds in the various groups of rats including: (1) non-diabetic controls (NDC); (2) Diabetic (DM) rats treated topically with 0.25% curcumin; (3) DM treated with 1% curcumin; (4) DM treated with 0.25% Compound 4, and (5) DM rats treated with 1% Compound 4. The wound tissues from these five different groups were then hydrolyzed (after extraction; see below) to degrade the collagen to individual amino acids, and the amino acid unique to collagen, hydroxyproline, was measured by a commercial colorimetric assay. Prior to hydrolysis, the wound tissues were extracted (at 4° C. to maintain the triple-helical conformation of the collagen molecules) to obtain first the salt-soluble fraction, then the acid-soluble fraction, leaving the insoluble fraction."}},
  "note": "Entries after “also recorded” stand apart in the source; their conditions may differ.",
  "data": [
    {"compound": "O=C(/C=C/c1ccc(O)cc1)C(C(=O)/C=C/c1ccc(O)cc1)C(=O)Nc1ccccc1", "note": "[Compound 4, 1,7-Bis(4-hydroxyphenyl)-4-N-phenylaminocarbonylhepta-1E, 6E-dien-3,5-dione]", "values": [
      {"measurement": "IC50", "setting": "MMP-9 [1]", "value": "8 ± 0.6", "unit": "µM"},
      {"measurement": "itching and healing of mosquito bites compared with Compound 2", "setting": "mosquito bites", "value": "stop itching sooner and heal quicker"},
      {"measurement": "reduction in wound diameter", "setting": "skin wounds; 1% topical in petrolatum jelly, daily, non-diabetic control 30%", "value": 35, "unit": "%"},
      {"measurement": "wound healing (in words)", "setting": "skin wounds; 3% topical, daily", "value": "significant increase in wound healing over that of the untreated diabetic control"},
      {"measurement": "wound healing (in words)", "setting": "skin wounds; systemic, oral 30 mg/kg daily", "value": "returned wound healing characteristics to that seen in the non-diabetic control group"},
      {"measurement": "MMP-9 levels in peritoneal macrophages", "setting": "MMP-9 [2]", "value": "decreased"},
      {"measurement": "toxic effects", "setting": "[3]; 30 mg/kg body weight, diabetic rats", "value": "virtually no toxic effects"},
      {"measurement": "tolerability", "setting": "[3]; topical (e.g. 1%) or systemic administration", "value": "well tolerated; also recorded: well tolerated and not toxic"},
      {"measurement": "IC50", "setting": "MMP-14", "value": "15.3 ± 3.1", "unit": "µM"},
      {"measurement": "IC50", "setting": "MMP-7", "value": "5 ± 0.7", "unit": "µM"},
      {"measurement": "macrophage accumulation in peritoneal exudates", "setting": "peritoneal macrophages", "value": "decreased pathologically excessive macrophage accumulation"},
      {"measurement": "Collagen Fractions (%) Acid-soluble", "setting": "collagen in wound tissue; 0.25% topical", "value": 41.7, "unit": "%"},
      {"measurement": "Collagen Fractions (%) Insoluble", "setting": "collagen in wound tissue; 0.25% topical", "value": 31.7, "unit": "%"},
      {"measurement": "Collagen Fractions (%) Salt-soluble", "setting": "collagen in wound tissue; 0.25% topical", "value": 26.6, "unit": "%"},
      {"measurement": "Collagen Fractions (%) Acid-soluble", "setting": "collagen in wound tissue; 1% topical", "value": 29.4, "unit": "%"},
      {"measurement": "Collagen Fractions (%) Insoluble", "setting": "collagen in wound tissue; 1% topical", "value": 40.5, "unit": "%"},
      {"measurement": "Collagen Fractions (%) Salt-soluble", "setting": "collagen in wound tissue; 1% topical", "value": 30.1, "unit": "%"}
    ]}
  ]
}
